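Assay format: 96-well plates, 48-hour exposure. Here, GI50 denotes the concentration required for 50% inhibition of growth. TGI: total growth inhibition.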
What was measured:
Assay in all cases: growth of human tumour cells (NCI), 48 h
[1] = test system: 786-0 renal
[2] = test system: A498 renal
[3] = test system: A549 NSCLC
[4] = test system: ACHN renal
[5] = test system: BT-549 breast
[6] = test system: CAKI-1 renal
[7] = test system: CCRF-CEM leukemia
[8] = test system: COLO 205 colon
[9] = test system: DU-145 prostate
[10] = test system: EKVX NSCLC
[11] = test system: HCC-2998 colon
[12] = test system: HCT-116 colon
[13] = test system: HCT-15 colon
[14] = test system: HL-60(TB) leukemia
[15] = test system: HOP-62 NSCLC
[16] = test system: HOP-92 NSCLC
[17] = test system: HS 578T breast
[18] = test system: HT29 colon
[19] = test system: IGROV1 ovarian
[20] = test system: K-562 leukemia
[21] = test system: KM12 colon
[22] = test system: LOX IMVI melanoma
[23] = test system: M14 melanoma
[24] = test system: MALME-3M melanoma
[25] = test system: MCF7 breast
[26] = test system: MDA-MB-231 breast
[27] = test system: MDA-MB-435
[28] = test system: MOLT-4 leukemia
[29] = test system: NCI-H226 lung
[30] = test system: NCI-H23 lung
[31] = test system: NCI-H460 lung
[32] = test system: NCI-H522 lung
[33] = test system: NCI/ADR-RES ovarian
[34] = test system: OVCAR-3 ovarian
[35] = test system: OVCAR-4 ovarian
[36] = test system: OVCAR-5 ovarian
[37] = test system: OVCAR-8 ovarian
[38] = test system: PC-3 prostate
[39] = test system: RPMI-8226 leukemia
[40] = test system: RXF 393 renal
[41] = test system: SF-268 CNS
[42] = test system: SF-295 CNS
[43] = test system: SF-539 CNS
[44] = test system: SK-MEL-28 melanoma
[45] = test system: SK-MEL-5 melanoma
[46] = test system: SN12C renal
[47] = test system: SNB-19 CNS
[48] = test system: SNB-75 CNS
[49] = test system: SR leukemia
[50] = test system: SW-620 colon
[51] = test system: T-47D breast
[52] = test system: TK-10 renal
[53] = test system: U251 CNS
[54] = test system: UACC-257 melanoma
[55] = test system: UACC-62 melanoma
[56] = test system: UO-31 renal

What does the source list for `COc1cc2c(cc1OCCCNC(=O)/C=C1/C[C@H]3C=Nc4cc(OCc5ccccc5)c(OC)cc4C(=O)N3C1)NC(=O)[C@@H]1CCCN1C2=O`?
GI50 [1]: 51 µM; TGI [1]: > 100 µM; GI50 [2]: 58.9 µM; TGI [2]: > 100 µM; GI50 [3]: > 100 µM; TGI [3]: > 100 µM; GI50 [4]: > 100 µM; TGI [4]: > 100 µM; GI50 [5]: 23.9 µM; TGI [5]: 53.5 µM; GI50 [6]: > 100 µM; TGI [6]: > 100 µM; GI50 [7]: 40.8 µM; TGI [7]: > 100 µM; GI50 [8]: 54.6 µM; TGI [8]: > 100 µM; GI50 [9]: 52.1 µM; TGI [9]: > 100 µM; GI50 [10]: > 100 µM; TGI [10]: > 100 µM; GI50 [11]: 60.3 µM; TGI [11]: > 100 µM; GI50 [12]: 73.7 µM; TGI [12]: > 100 µM; GI50 [13]: > 100 µM; TGI [13]: > 100 µM; GI50 [14]: 51.9 µM; TGI [14]: > 100 µM; GI50 [15]: 41.3 µM; TGI [15]: > 100 µM; GI50 [16]: 47.2 µM; TGI [16]: > 100 µM; GI50 [17]: 34.4 µM; TGI [17]: > 100 µM; GI50 [18]: 45.2 µM; TGI [18]: > 100 µM; GI50 [19]: > 100 µM; TGI [19]: > 100 µM; GI50 [20]: 82.8 µM; TGI [20]: > 100 µM; GI50 [21]: 47.5 µM; TGI [21]: > 100 µM; GI50 [22]: 43.3 µM; TGI [22]: > 100 µM; GI50 [23]: 55.3 µM; TGI [23]: > 100 µM; GI50 [24]: > 100 µM; TGI [24]: > 100 µM; GI50 [25]: 32 µM; TGI [25]: > 100 µM; GI50 [26]: 50.9 µM; TGI [26]: > 100 µM; GI50 [27]: 44.2 µM; TGI [27]: > 100 µM; GI50 [28]: 29.6 µM; TGI [28]: > 100 µM; GI50 [29]: 69.5 µM; TGI [29]: > 100 µM; GI50 [30]: > 100 µM; TGI [30]: > 100 µM; GI50 [31]: 38.9 µM; TGI [31]: > 100 µM; GI50 [32]: 31.3 µM; TGI [32]: > 100 µM; GI50 [33]: > 100 µM; TGI [33]: > 100 µM; GI50 [34]: > 100 µM; TGI [34]: > 100 µM; GI50 [35]: 73.8 µM; TGI [35]: > 100 µM; GI50 [36]: 93.5 µM; TGI [36]: > 100 µM; GI50 [37]: > 100 µM; TGI [37]: > 100 µM; GI50 [38]: 77.3 µM; TGI [38]: > 100 µM; GI50 [39]: 43.6 µM; TGI [39]: > 100 µM; GI50 [40]: 33.6 µM; TGI [40]: > 100 µM; GI50 [41]: 39.6 µM; TGI [41]: > 100 µM; GI50 [42]: 84.7 µM; TGI [42]: > 100 µM; GI50 [43]: 32.4 µM; TGI [43]: 85.5 µM; GI50 [44]: > 100 µM; TGI [44]: > 100 µM; GI50 [45]: 22.5 µM; TGI [45]: 68.1 µM; GI50 [46]: 18.4 µM; TGI [46]: > 100 µM; GI50 [47]: 43.3 µM; TGI [47]: > 100 µM; GI50 [48]: 32.7 µM; TGI [48]: 98.1 µM; GI50 [49]: 17.5 µM; TGI [49]: 49.2 µM; GI50 [50]: 33.3 µM; TGI [50]: > 100 µM; GI50 [51]: > 100 µM; TGI [51]: > 100 µM; GI50 [52]: > 100 µM; TGI [52]: > 100 µM; GI50 [53]: 33.3 µM; TGI [53]: > 100 µM; GI50 [54]: > 100 µM; TGI [54]: > 100 µM; GI50 [55]: 55.2 µM; TGI [55]: > 100 µM; GI50 [56]: > 100 µM; TGI [56]: > 100 µM
